Measurements: patent publication US11339148B2, “Crystalline forms of the CXCR7 receptor antagonist (3S,4S)-1-Cyclopropylmethyl-4-{[5-(2,4-difluoro-phenyl)-isoxazole-3-carbonyl]-amino}-piperidine-3-carboxylic acid (1-pyrimidin-2-yl-cyclopropyl)-amide” (IDORSIA PHARMACEUTICALS LTD., priority 2018, dated 2022)

Experiment: Gravimetric vapour sorption (GVS) / moisture sorption
Format: physicochemical
Settings: at 95% RH; 25° C.
Description: Gravimetric Vapour Sorption (GVS) Analysis
Measurements are performed on a multi sample instrument SPS-100n (Projekt Messtechnik, Ulm, Germany) operated in stepping mode at 25° C.

Moisture sorption: Sorption of 6.9% at 95% RH
Compound: O=C(N[C@H]1CCN(CC2CC2)C[C@@H]1C(=O)NC1(c2ncccn2)CC1)c1cc(-c2ccc(F)cc2F)on1 [Example 2, (3S,4S)-1-Cyclopropylmethyl-4-{[5-(2,4-difluoro-phenyl)-isoxazole-3-carbonyl]-amino}-piperidine-3-carboxylic acid (1-pyrimidin-2-yl-cyclopropyl)-amide in Crystalline Form 2]
